Patent US11702418B2, “SOS1 inhibitors” (priority 2019, dated 2023)

What was measured:
[1] = system: pERK in NCI-H1435 cells (NF-1 mutant); test: pERK inhibition in NF-1 mutant NCI-H1435 cells (Example F); assay type: cell-based; settings: NCI-H1435, 1 h, read-out: IC50, pERK inhibition
Description: The formaldehyde was discarded from the plates and 150 μL of ice-cold methanol was added to permeabilize the cells for 10 minutes at −20° C. The methanol was discarded from each of the plates and any liquid remaining in the plate by tapping the plate against paper towels. […] The plates were incubated overnight at 4° C. on a shaker.
On Assay day 2, the primary antibody solution was removed. […] The secondary antibody solution as removed and each plate was washed with PBST 3× times. Any liquid remaining was discarded and the plate was imaged using the Licor Odyssey machine according to the manufacturer's instruction, using a set focus length at 3 mm and both 800 nm and 700 nm filters. The GAPDH normalized scan values for each well were divided by the average of vehicle wells to get the % of pERK inhibition. The IC50 values were then calculated with the Graph pad Prism software.

pERK in MKN1 cells = test: cells; assay type: cell-based; settings: Homo sapiens, MKN-1, pERK inhibition, In-Cell Western; MKN1 or H358 cells (Table 24 does not say which); 0.5-1 hour incubation; read-out: IC50
[2] = molecular target: recombinant human SOS1 polypeptide (amino acids 560-1049) (Homo sapiens (Human), UniProt Q07889); test: biochemical; assay type: binding; settings: HTRF displacement, Cy5 labelled tracer, Morrison equation for competitive binding; read-out: Ki, Inhibition of Labeled Tracer Binding to SOS1
Sequence of recombinant human SOS1 polypeptide (amino acids 560-1049) (Q07889 560-1049): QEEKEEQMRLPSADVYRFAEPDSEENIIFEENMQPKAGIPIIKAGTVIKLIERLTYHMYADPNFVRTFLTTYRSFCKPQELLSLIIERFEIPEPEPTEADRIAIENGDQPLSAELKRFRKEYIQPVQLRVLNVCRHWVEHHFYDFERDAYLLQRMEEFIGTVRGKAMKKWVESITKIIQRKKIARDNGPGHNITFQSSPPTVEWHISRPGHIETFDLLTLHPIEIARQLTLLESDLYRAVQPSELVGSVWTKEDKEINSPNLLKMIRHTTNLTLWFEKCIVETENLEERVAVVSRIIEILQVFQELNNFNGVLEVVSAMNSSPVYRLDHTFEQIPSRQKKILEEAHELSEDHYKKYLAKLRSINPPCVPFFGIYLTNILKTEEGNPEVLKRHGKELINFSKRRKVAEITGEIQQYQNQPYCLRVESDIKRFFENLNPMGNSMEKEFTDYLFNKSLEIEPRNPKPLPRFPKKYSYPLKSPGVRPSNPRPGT

| SMILES | IC50 [1] [nM] | IC50 (pERK in MKN1 cells) [nM] | Ki [2] [nM] |
| --- | --- | --- | --- |
| CNCc1ccccc1-c1ccc([C@@H](C)Nc2nnc(C)c3ccc(N4CCOCC4)cc23)s1 [Example 6-3, (R)-4-methyl-N-(1-(5-(2-((methylamino)methyl)phenyl)thiophen-2-yl)ethyl)-7-morpholinophthalazin-1-amine] | 25 | 12 | 0.02 |
| Cc1nnc(N[C@H](C)c2cc(N)cc(C(F)(F)F)c2)c2cc(N3CCOCC3)ccc12 [Example 6-5, (R)-N-(1-(3-amino-5-(trifluoromethyl)phenyl)ethyl)-4-methyl-7-morpholinophthalazin-1-amine] | 9 | 10 | 0.12 |
| CNCc1c(F)cccc1-c1ccc([C@@H](C)Nc2nnc(C)c3ccc(N4CCOCC4)cc23)s1 [Example 6-6, (R)-N-(1-(5-(3-fluoro-2-((methylamino)methyl)phenyl)thiophen-2-yl)ethyl)-4-methyl-7-morpholinophthalazin-1-amine] | 29 | 40 | 0.11 |
| Cc1c([C@@H](C)Nc2nnc(C)c3cnc(N4CCNCC4)cc23)cccc1C(F)(F)F [Example 6-9, (R)-4-methyl-N-(1-(2-methyl-3-(trifluoromethyl)phenyl)ethyl)-7-(piperazin-1-yl)pyrido[3,4-d]pyridazin-1-amine] | 52 |  |  |
| Cc1c([C@@H](C)Nc2nnc(C)c3cnc(N4CCOCC4)cc23)cccc1C(F)(F)F [Example 6-12, (R)-4-methyl-N-(1-(2-methyl-3-(trifluoromethyl)phenyl)ethyl)-7-morpholinopyrido[3,4-d]pyridazin-1-amine] | 63 |  |  |
| Cc1c([C@@H](C)Nc2nnc(C)c3ccc(O[C@H]4CCNC4)cc23)cccc1C(F)(F)F [Example 7-3, 4-methyl-N-((R)-1-(2-methyl-3-(trifluoromethyl)phenyl)ethyl)-7-(((S)-pyrrolidin-3-yl)oxy)phthalazin-1-amine] | 55 | 28 | 0.32 |
| Cc1c([C@@H](C)Nc2nnc(C)c3ccc(OC4CNC4)cc23)cccc1C(F)(F)F [Example 7-4, (R)-7-(azetidin-3-yloxy)-4-methyl-N-(1-(2-methyl-3-(trifluoromethyl)phenyl)ethyl)phthalazin-1-amine] | 83 | 14 | 0.47 |
| Cc1c(C(F)F)cccc1[C@@H](C)Nc1nnc(C)c2ccc(N3CCNCC3)cc12 [Example 10-4, (R)-N-(1-(3-(difluoromethyl)-2-methylphenyl)ethyl)-4-methyl-7-(piperazin-1-yl)phthalazin-1-amine] | 33 | 14 | 0.08 |
| Cc1c([C@@H](C)Nc2nnc(C)c3ccc(N4CCOC[C@@H]4C)cc23)cccc1C(F)(F)F [Example 10-6, 4-methyl-N-((R)-1-(2-methyl-3-(trifluoromethyl)phenyl)ethyl)-7-((S)-3-methylmorpholino)phthalazin-1-amine] | 75 | 21 | 0.64 |
| CNC1CCN(c2ccc3c(C)nnc(N[C@H](C)c4cccc(C(F)(F)F)c4C)c3c2)CC1 [Example 10-7, (R)-4-methyl-N-(1-(2-methyl-3-(trifluoromethyl)phenyl)ethyl)-7-(4-(methylamino)piperidin-1-yl)phthalazin-1-amine] | 87 | 22 | 0.07 |
| Cc1c([C@@H](C)Nc2nnc(C)c3ccc(N4CCC(N(C)C)CC4)cc23)cccc1C(F)(F)F [Example 10-8, (R)-7-(4-(dimethylamino)piperidin-1-yl)-4-methyl-N-(1-(2-methyl-3-(trifluoromethyl)phenyl)ethyl)phthalazin-1-amine] | 94 | 34 | 0.09 |
| Cc1c([C@@H](C)Nc2nnc(C)c3ccc(N4CCC(C)(N)CC4)cc23)cccc1C(F)(F)F [Example 10-9, (R)-7-(4-amino-4-methylpiperidin-1-yl)-4-methyl-N-(1-(2-methyl-3-(trifluoromethyl)phenyl)ethyl)phthalazin-1-amine] | 152 | 54 | 0.05 |
| Cc1c([C@@H](C)Nc2nnc(C)c3ccc(N4CCN(c5cnn(C)c5)CC4)cc23)cccc1C(F)(F)F [Example 10-10, (R)-4-methyl-7-(4-(1-methyl-1H-pyrazol-4-yl)piperazin-1-yl)-N-(1-(2-methyl-3-(trifluoromethyl)phenyl)ethyl)phthalazin-1-amine] | 15 | 17 | 0.01 |
| Cc1nc(C)n2c1CN(c1ccc3c(C)nnc(N[C@H](C)c4cccc(C(F)(F)F)c4C)c3c1)CC2 [Example 10-11, (R)-7-(1,3-dimethyl-5,6-dihydroimidazo[1,5-a]pyrazin-7(8H)-yl)-4-methyl-N-(1-(2-methyl-3-(trifluoromethyl)phenyl)ethyl)phthalazin-1-amine] | 63 | 22 | 0.01 |
| Cc1c([C@@H](C)Nc2nnc(C)c3ccc(N4CCN(C(=O)C5COC5)CC4)cc23)cccc1C(F)(F)F [Example 11-1, (R)-(4-(1-methyl-4-((1-(2-methyl-3-(trifluoromethyl)phenyl)ethyl)amino)phthalazin-6-yl)piperazin-1-yl)(oxetan-3-yl)methanone] | 6 | 10 | 0.01 |
| Cc1c([C@@H](C)Nc2nnc(C)c3ccc(N4CCN(C(=O)C5CCOCC5)CC4)cc23)cccc1C(F)(F)F [Example 11-2, (R)-(4-(1-methyl-4-((1-(2-methyl-3-(trifluoromethyl)phenyl)ethyl)amino)phthalazin-6-yl)piperazin-1-yl)(tetrahydro-2H-pyran-4-yl)methanone] | 17 | 27 | < 0.01 |
| Cc1c([C@@H](C)Nc2nnc(C)c3ccc(N4CCN(C(=O)C5(C(F)(F)F)CC5)CC4)cc23)cccc1C(F)(F)F [Example 11-3, (R)-(4-(1-methyl-4-((1-(2-methyl-3-(trifluoromethyl)phenyl)ethyl)amino)phthalazin-6-yl)piperazin-1-yl)(1-(trifluoromethyl)cyclopropyl)methanone] | 62 | 48 | < 0.01 |
| Cc1c([C@@H](C)Nc2nnc(C)c3ccc(N4CCN(C(=O)[C@@H]5CCOC5)CC4)cc23)cccc1C(F)(F)F [Example 11-4, (4-(1-methyl-4-(((R)-1-(2-methyl-3-(trifluoromethyl)phenyl)ethyl)amino)phthalazin-6-yl)piperazin-1-yl)((R)-tetrahydrofuran-3-yl)methanone] | 19 | 25 | 0.01 |
